From ChEMBL document CHEMBL3621100, “Discovery of Novel Class I Histone Deacetylase Inhibitors with Promising in Vitro and in Vivo Antitumor Activities” (J Med Chem, 2015)

Tests used:
DU-145 [1] = test: Antitumor activity against human DU145 cells xenografted in BALB/c mouse assessed as delay in tumor growth at 40 mg/kg, iv administered for 5 times a week for after 4 weeks; assay type: functional
Mus musculus [2] = test: Toxicity in human DU145 cells xenografted BALB/c mouse assessed as mortality at 20 to 80 mg/kg, iv administered for 5 times a week for after 4 weeks; assay type: organism-based, DU-145; conditions: in vivo, 672 h
DU-145 [3] = test: Antiproliferative activity against human DU145 cells after 72 hrs by CCK8 assay; assay type: functional; conditions: Homo sapiens, DU-145, 72 h
[4] = Aqueous solubility of the compound; assay type: physicochemical; conditions: buffer
DU-145 [5] = test: Antitumor activity against human DU145 cells xenografted in BALB/c mouse assessed as delay in tumor growth at 80 mg/kg, iv administered for 5 times a week for after 4 weeks; assay type: functional
Histone deacetylase 3 = Histone deacetylase 3 (Homo sapiens, UniProt O15379); test: Inhibition of recombinant human HDAC3 after 60 mins by fluorescence assay
Histone deacetylase 4 = Histone deacetylase 4 (Homo sapiens, UniProt P56524); test: Inhibition of recombinant human HDAC4 after 60 mins by fluorescence assay
Histone deacetylase 2 = Histone deacetylase 2 (Homo sapiens, UniProt Q92769); test: Inhibition of recombinant human HDAC2 after 60 mins by fluorescence assay
in vitro = conditions: human, DU145 cells and HLF cells
Description: Selectivity ratio of GI50 for human DU145 cells to GI50 for human HLF cells

DU-145 [6] = test: Antitumor activity against human DU145 cells xenografted in BALB/c mouse assessed as delay in tumor growth at 20 mg/kg, iv administered for 5 times a week for after 4 weeks; assay type: functional
Mus musculus [7] = test: Toxicity in human DU145 cells xenografted BALB/c mouse assessed as change in body weight at 20 to 80 mg/kg, iv administered for 5 times a week for after 4 weeks; assay type: organism-based, DU-145; conditions: in vivo, 672 h
DU-145 [8] = test: Antitumor activity against human DU145 cells xenografted in BALB/c mouse assessed as tumor growth inhibition at 20 mg/kg, iv administered for 5 times a week for after 4 weeks; assay type: functional; conditions: DU-145, iv, 672 h, read-out: GI
DU-145 [9] = test: Antitumor activity against human DU145 cells xenografted in iv dosed BALB/c mouse assessed as delay in tumor growth after 4 weeks; assay type: functional, organism-based
[10] = target: T1, Protein deacetylase HDAC6 (Homo sapiens, UniProt Q9UBN7); test: Inhibition of recombinant human HDAC6 after 60 mins by fluorescence assay
T1 sequence (Q9UBN7 whole entry): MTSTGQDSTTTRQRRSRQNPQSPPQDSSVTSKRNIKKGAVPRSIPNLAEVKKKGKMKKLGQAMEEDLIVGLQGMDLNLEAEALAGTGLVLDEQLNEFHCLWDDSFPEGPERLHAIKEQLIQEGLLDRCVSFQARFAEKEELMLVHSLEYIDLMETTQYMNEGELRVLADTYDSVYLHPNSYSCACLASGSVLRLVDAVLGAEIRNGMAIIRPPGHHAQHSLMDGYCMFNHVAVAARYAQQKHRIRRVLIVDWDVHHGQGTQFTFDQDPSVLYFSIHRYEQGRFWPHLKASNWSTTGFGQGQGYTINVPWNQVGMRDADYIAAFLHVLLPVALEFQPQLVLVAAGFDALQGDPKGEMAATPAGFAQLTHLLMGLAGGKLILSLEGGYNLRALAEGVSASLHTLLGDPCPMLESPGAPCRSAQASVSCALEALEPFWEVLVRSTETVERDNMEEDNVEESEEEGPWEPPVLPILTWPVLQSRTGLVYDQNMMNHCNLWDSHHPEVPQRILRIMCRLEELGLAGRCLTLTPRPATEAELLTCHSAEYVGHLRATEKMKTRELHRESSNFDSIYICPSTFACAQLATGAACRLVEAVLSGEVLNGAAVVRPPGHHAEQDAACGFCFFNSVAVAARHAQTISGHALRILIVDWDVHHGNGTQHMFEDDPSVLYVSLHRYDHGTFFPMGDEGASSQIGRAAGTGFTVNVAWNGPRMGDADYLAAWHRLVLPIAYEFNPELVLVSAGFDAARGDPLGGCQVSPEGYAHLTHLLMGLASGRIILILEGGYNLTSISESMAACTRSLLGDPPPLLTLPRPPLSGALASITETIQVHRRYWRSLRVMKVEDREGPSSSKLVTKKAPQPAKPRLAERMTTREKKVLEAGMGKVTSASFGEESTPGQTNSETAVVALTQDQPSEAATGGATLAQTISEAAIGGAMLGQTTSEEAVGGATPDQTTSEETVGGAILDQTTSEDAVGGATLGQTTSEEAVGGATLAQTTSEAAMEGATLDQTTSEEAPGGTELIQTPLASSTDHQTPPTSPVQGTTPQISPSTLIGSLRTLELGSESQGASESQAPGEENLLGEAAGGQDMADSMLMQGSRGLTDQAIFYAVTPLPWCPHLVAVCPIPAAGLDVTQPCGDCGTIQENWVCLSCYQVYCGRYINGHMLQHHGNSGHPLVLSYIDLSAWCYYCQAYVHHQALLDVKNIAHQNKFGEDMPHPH

Histone deacetylase 9 = Histone deacetylase 9 (Homo sapiens, UniProt Q9UKV0); test: Inhibition of recombinant human HDAC9 after 60 mins by fluorescence assay
DU-145 [11] = test: Fold increase in DU145 over HLF selectivity (GI50 ratio) relative to FK228 after 72 hrs by CCK8 assay
DU-145 [12] = test: Fold increase in DU145 over HLF selectivity (GI50 ratio) relative to largazole after 72 hrs by CCK8 assay

Chain of Histone deacetylase 4 (P56524 whole entry): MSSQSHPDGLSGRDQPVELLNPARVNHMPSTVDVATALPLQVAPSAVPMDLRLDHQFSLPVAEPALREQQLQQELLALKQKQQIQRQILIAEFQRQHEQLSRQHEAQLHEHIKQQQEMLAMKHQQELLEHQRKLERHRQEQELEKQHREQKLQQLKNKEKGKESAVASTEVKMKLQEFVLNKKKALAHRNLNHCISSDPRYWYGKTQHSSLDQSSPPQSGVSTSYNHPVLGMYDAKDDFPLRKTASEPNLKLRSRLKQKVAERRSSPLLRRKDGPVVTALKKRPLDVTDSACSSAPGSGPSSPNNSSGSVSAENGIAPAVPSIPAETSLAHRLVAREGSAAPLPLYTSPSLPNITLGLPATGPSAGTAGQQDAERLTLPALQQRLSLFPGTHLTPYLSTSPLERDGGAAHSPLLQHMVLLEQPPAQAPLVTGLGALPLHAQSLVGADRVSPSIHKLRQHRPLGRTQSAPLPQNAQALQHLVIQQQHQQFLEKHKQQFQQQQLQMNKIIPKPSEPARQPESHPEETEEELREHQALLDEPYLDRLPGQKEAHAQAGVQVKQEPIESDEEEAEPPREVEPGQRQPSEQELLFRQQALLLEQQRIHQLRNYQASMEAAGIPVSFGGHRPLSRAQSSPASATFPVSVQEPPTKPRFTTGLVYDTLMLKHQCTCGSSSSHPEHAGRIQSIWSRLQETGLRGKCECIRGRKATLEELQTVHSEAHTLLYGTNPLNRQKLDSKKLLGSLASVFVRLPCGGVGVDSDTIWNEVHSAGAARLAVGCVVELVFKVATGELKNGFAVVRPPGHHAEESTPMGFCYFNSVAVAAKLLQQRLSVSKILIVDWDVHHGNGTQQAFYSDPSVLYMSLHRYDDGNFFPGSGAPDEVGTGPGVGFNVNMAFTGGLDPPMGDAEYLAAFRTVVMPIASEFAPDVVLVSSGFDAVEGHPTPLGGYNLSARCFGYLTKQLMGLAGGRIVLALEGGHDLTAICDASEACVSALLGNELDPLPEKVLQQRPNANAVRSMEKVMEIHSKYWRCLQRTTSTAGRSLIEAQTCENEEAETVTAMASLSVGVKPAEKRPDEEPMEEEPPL
Chain of Histone deacetylase 9 (Q9UKV0 whole entry): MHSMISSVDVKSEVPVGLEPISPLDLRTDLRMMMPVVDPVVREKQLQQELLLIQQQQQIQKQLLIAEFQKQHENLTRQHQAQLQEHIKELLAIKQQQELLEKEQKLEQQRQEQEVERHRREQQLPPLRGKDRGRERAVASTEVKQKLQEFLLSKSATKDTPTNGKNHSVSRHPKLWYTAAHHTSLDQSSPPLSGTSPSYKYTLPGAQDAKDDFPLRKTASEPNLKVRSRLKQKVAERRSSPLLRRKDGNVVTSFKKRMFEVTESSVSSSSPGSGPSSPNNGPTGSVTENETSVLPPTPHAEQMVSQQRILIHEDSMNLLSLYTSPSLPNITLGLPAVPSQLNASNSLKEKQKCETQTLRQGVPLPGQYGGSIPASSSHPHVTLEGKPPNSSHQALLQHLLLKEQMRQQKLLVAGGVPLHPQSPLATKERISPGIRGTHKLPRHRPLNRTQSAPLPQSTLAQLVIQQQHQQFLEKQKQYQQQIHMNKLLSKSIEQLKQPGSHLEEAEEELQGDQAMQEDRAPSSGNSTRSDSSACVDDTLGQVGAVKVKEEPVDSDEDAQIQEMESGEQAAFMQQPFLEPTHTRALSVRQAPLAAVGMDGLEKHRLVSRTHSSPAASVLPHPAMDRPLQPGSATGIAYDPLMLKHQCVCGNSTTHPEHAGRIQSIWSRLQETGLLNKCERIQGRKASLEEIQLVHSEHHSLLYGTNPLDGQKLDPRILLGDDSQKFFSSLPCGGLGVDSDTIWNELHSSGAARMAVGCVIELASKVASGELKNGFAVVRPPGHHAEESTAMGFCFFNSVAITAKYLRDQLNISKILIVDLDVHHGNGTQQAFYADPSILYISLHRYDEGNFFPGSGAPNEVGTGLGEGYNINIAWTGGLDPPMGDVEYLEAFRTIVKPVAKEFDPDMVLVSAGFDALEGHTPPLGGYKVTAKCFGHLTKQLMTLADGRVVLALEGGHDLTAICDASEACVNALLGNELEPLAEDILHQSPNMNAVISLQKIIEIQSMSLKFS
Chain of Histone deacetylase 3 (O15379 whole entry): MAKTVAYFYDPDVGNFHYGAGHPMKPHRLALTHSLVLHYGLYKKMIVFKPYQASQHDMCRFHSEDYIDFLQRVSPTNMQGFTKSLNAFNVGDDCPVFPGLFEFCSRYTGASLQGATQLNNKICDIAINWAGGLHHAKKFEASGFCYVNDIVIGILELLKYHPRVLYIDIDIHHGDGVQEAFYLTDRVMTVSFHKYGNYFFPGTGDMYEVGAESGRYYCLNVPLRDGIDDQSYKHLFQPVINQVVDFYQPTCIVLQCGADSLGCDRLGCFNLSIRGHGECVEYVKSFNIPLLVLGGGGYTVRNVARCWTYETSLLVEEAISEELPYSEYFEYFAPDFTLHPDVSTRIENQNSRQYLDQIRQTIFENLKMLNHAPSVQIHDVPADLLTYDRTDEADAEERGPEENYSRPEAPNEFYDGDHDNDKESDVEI
Chain of Histone deacetylase 2 (Q92769 whole entry): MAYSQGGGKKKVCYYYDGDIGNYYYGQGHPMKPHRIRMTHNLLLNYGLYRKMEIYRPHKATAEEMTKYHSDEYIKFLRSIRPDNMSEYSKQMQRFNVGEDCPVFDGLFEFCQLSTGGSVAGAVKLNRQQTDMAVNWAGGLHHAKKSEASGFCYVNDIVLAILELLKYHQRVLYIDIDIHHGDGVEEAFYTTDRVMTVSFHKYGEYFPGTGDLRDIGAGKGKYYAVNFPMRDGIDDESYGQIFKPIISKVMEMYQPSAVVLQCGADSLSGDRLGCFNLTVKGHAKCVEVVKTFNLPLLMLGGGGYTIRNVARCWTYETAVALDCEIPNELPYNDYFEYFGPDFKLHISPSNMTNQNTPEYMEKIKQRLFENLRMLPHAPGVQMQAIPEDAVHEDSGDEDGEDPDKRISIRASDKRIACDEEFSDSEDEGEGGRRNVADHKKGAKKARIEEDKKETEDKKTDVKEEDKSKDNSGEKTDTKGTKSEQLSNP

IC50 (Histone deacetylase 3) [nM]	IC50 (Histone deacetylase 4) [nM]	IC50 (Histone deacetylase 2) [nM]	IC50 [10] [nM]	IC50 (Histone deacetylase 9) [nM]	SMILES	Activity (DU-145 [1]) [%]	Activity (Mus musculus [2])	GI50 (DU-145 [3]) [nM]	solubility [4]	Activity (DU-145 [5]) [%]	selectivity ratio (in vitro)	Activity (DU-145 [6]) [%]	Activity (Mus musculus [7])	inhibition in vivo at 20 mg/kg (DU-145 [8]) [%]	Activity (DU-145 [9])	Ratio (DU-145 [11])	Ratio (DU-145 [12])
9.77	> 10000	36.6	459	> 10000	C/C=C1\NC(=O)c2csc(n2)[C@@H](C(C)C)NC(=O)C[C@@H](/C=C/CCS)OC(=O)[C@H](C(C)C)NC1=O	–	–	–	–	–	–	–	–	–	–	–	–
7.67	> 10000	45	331	> 10000	C/C=C1\NC(=O)c2csc(n2)CNC(=O)C[C@@H](/C=C/CCS)OC(=O)[C@H](C(C)C)NC1=O	–	–	–	–	–	–	–	–	–	–	–	–
1680	> 10000	2710	6950	> 10000	C/C=C1\NC(=O)c2csc(n2)CNC(=O)C[C@@H](/C=C/CCSC(=O)CCCCCCC)OC(=O)[C@H](C(C)C)NC1=O	–	–	6.99	–	–	0.022	–	–	–	–	22	20

SMILES	IC50 (Histone deacetylase 3) [nM]	IC50 (Histone deacetylase 4) [nM]	IC50 (Histone deacetylase 2) [nM]	IC50 [10] [nM]	IC50 (Histone deacetylase 9) [nM]	Activity (DU-145 [1]) [%]	Activity (Mus musculus [2])	GI50 (DU-145 [3]) [nM]	solubility [4]	Activity (DU-145 [5]) [%]	selectivity ratio (in vitro)	Activity (DU-145 [6]) [%]	Activity (Mus musculus [7])	inhibition in vivo at 20 mg/kg (DU-145 [8]) [%]	Activity (DU-145 [9])	Ratio (DU-145 [11])	Ratio (DU-145 [12])
C/C=C1\NC(=O)c2csc(n2)CNC(=O)C[C@@H](/C=C/CCSC(C)=O)OC(=O)[C@H](C(C)C)NC1=O	73	> 10000	328	4630	> 10000	75.2	Non-toxic	11	soluble	81.2	0.034	51.7	Non-toxic	51.7	Dose-dependent effect	–	–
C/C=C1\NC(=O)c2csc(n2)[C@@H](C(C)C)NC(=O)C[C@@H](/C=C/CCSC(=O)CCCCCCC)OC(=O)[C@H](C(C)C)NC1=O	3150	> 10000	2740	> 10000	> 10000	–	–	20.5	–	–	0.029	–	–	–	–	8	–
